Assay results taken from publication PMC4899770, “Core-shell nanocarriers with high paclitaxel loading for passive and active targeting” (Scientific Reports, 2016).

Settings: rat, in vivo, iv, 10 mg/kg
Protocol: Blood samples (0.5 mL) were collected from rat orbit at the time points of 0.083, 0.25, 0.5, 1, 2, 4, 6 and 8 h. The blood samples were centrifuged for 10 min at 5,000 rpm in a desktop centrifuge (Anke TGL-16G, Shanghai, China), and the plasma was separated and transferred to microcentrifuge tubes. The PTX in plasma was measured using an HPLC system after extraction with ethylether and redissolved in methanol. The pharmacokinetic parameters of PTX were calculated using a non-compartmental model with Kinetica 5.0 (Thermo Fisher Scientific Inc., MA, USA).
Two hundred microliter of plasma samples were mixed with 10 µL of internal standard (100 ng/mL diazepam in methanol), followed by vortexing for 60 s. Following mixing into 800 µL of ethylether, the sample was vortexed for 2 min and centrifuged at 12,700 g for 10 min. Subsequently, the supernatant was collected and dried under a stream of nitrogen. The residual was redisolved in 100 µL of mobile phase, votexed for 3 min and centrifuged at 10,625 g for 5 min^7. Finally, 20 µL of the supernatant was injected into the HPLC system for analysis under the conditions described below.
PTX measurement was performed on a LC-10AT HPLC system (Shimadzu, Japan). It was separated at 30 °C using an ODS-C18 column (4.6 mm × 250 mm, Diamonsil, China). The samples were eluted with acetonitrile and water (54: 46, v/v) at the flow rate of 1.0 mL/min and monitored at 227 nm^8.

AUC0-∞: 4380 ± 3570 ng·h/mL | CL: 1.68 ± 1.19 L/h | MRT: 1.78 ± 0.88 h | k (elimination rate constant): 2.99 ± 2.88 h⁻¹
Substance: Taxol^®
